Reference: patent publication US20050048088A1, “Compositions comprising at least two nanoemulsions” (priority 2003, published 2005)

Assay: Recrystallization of CoQ10 from warm oil/alcohol solution on cooling to room temperature
Assay type: physicochemical
Conditions: cooled to room temperature (25° C.)
Protocol: (§1) 30 g of lecithin were dissolved in 100 g of alcohol and added with stirring to 520 g of water and 200 g of glycerin. 10 g of Coenzyme Q10 (ubichinone) [CoQ10] were dissolved at 40° C. in 40 g of vegetable oil and 100 g of alcohol (ethanol). […] Therefore, the CoQ10 solution, having a temperature of 40° C., was added to the lecithin/alcohol/glycerin/water mixture and then homogenized six times at 1200 bar (1.2·10^8 Pa) using a high pressure homgenizer of Microfluidics Corp (MT 110®), Thereby, the alcohol was homogeneously distributed in the nanoemulsion. An orange transparent nanoemulsion was obtained.
as §1, with “50 g” for “30 g”, “to 430” for “to 520”, “glycerin. 80” for “glycerin. 10”, “at 45°” for “at 40°”, “pressure homogenizer” for “pressure homgenizer”, “(MT 110®).” for “(MT 110®),”

COC1=C(OC)C(=O)C(C/C=C(\C)CC/C=C(\C)CC/C=C(\C)CC/C=C(\C)CC/C=C(\C)CC/C=C(\C)CC/C=C(\C)CC/C=C(\C)CC/C=C(\C)CCC=C(C)C)=C(C)C1=O [CoQ10, Coenzyme Q10]
behaviour of CoQ10 solution on cooling (10 g CoQ10 dissolved at 40° C. in 40 g vegetable oil and 100 g alcohol): most of the CoQ10 recrystallizes out from the solution after some hours
behaviour of CoQ10 solution on cooling (80 g CoQ10 dissolved at 45° C. in 40 g vegetable oil and 100 g alcohol): most of the CoQ10 recrystallized out from the solution after some hours
